From patent US20230085307A1, “PYRIDAZINONE COMPOUND AND HERBICIDE” (NISSAN CHEMICAL CORPORATION, priority 2019, published 2023)

Columns and labels:
late watergrass = assay: Test Example 2: herbicidal activity, application during weed generation under submerged conditions (Table 17, symbol A); type: in vivo, late watergrass (Echinochloa oryzicola); conditions: AAH 320 g/ha; application during weed generation, submerged conditions
Summary of the method: (§1)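 Mixed weed seedlings in alluvial soil under a 4 cm water layer, greenhouse-grown at 25–30° C. Compound given as a diluted emulsion into the floodwater at the 1–2 leaf stage; response graded after three weeks.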

Japanese bulrush = assay: Test Example 2: herbicidal activity, application during weed generation under submerged conditions (Table 17, symbol B); type: in vivo, Japanese bulrush (Schoenoplectus juncoides); conditions: AAH 320 g/ha; application during weed generation, submerged conditions
Summary of the method: as §1

oval-leafed pondweed = assay: Test Example 2: herbicidal activity, application during weed generation under submerged conditions (Table 17, symbol C); type: in vivo, oval-leafed pondweed (Monochoria vaginalis); conditions: AAH 320 g/ha; application during weed generation, submerged conditions
Summary of the method: as §1

barnyard grass [1] = assay: Test Example 3: herbicidal effect by foliage application, Wagner pot (Table 18, symbol H); type: in vivo, barnyard grass (Echinochloa crus-galli); conditions: 320 g/ha
Summary of the method: (§2)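 Plants were sown in alluvial soil held under 0.1–0.5 cm standing water and grown 14 days in a greenhouse at 25–30 °C. An emulsifiable formulation, water-diluted to the set dose, was then sprayed onto the foliage, and effects were scored three weeks later using previously defined criteria.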

Chinese sprangletop = assay: Test Example 3: herbicidal effect by foliage application, Wagner pot (Table 18, symbol D); type: in vivo, chinese sprangletop (Leptochloa chinensis); conditions: 320 g/ha
Summary of the method: as §2

rice flat sedge = assay: Test Example 3: herbicidal effect by foliage application, Wagner pot (Table 18, symbol E); type: in vivo, rice flat sedge (Cyperus iria); conditions: 320 g/ha
Summary of the method: as §2

southern crabgrass [2] = assay: Test Example 4: herbicidal effect by soil treatment (Table 19, symbol F); type: in vivo, southern crabgrass (Digitaria ciliaris); conditions: amount of applied herbicide 320 g/ha
Summary of the method: (§3)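 Scoring uses the grading scale of an earlier test, three weeks post-application. Treatment consists of spraying a diluted emulsion formulation across the surface of sterilized diluvial soil in which seeds are buried near 1.5 cm deep; boxes are kept in a greenhouse between 25° C. and 30° C.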

green foxtail [3] = assay: Test Example 4: herbicidal effect by soil treatment (Table 19, symbol G); type: in vivo, green foxtail (Setaria viridis); conditions: amount of applied herbicide 320 g/ha
Summary of the method: as §3

barnyard grass [4] = assay: Test Example 4: herbicidal effect by soil treatment (Table 19, symbol H); type: in vivo, barnyard grass (Echinochloa crus-galli); conditions: amount of applied herbicide 320 g/ha
Summary of the method: as §3

wild oat [5] = assay: Test Example 4: herbicidal effect by soil treatment (Table 19, symbol I); type: in vivo, wild oat (Avena fatua); conditions: amount of applied herbicide 320 g/ha
Summary of the method: as §3

blackgrass [6] = assay: Test Example 4: herbicidal effect by soil treatment (Table 19, symbol J); type: in vivo, blackgrass (Alopecurus myosuroides); conditions: amount of applied herbicide 320 g/ha
Summary of the method: as §3

Italian ryegrass [7] = assay: Test Example 4: herbicidal effect by soil treatment (Table 19, symbol K); type: in vivo, Italian ryegrass (Lolium multiflorum); conditions: amount of applied herbicide 320 g/ha
Summary of the method: as §3

windgrass [8] = assay: Test Example 4: herbicidal effect by soil treatment (Table 19, symbol L); type: in vivo, windgrass (Apera spica-venti); conditions: amount of applied herbicide 320 g/ha
Summary of the method: as §3

velvetleaf [9] = assay: Test Example 4: herbicidal effect by soil treatment (Table 19, symbol M); type: in vivo, velvetleaf (Abutilon theophrasti); conditions: amount of applied herbicide 320 g/ha
Summary of the method: as §3

redroot pigweed [10] = assay: Test Example 4: herbicidal effect by soil treatment (Table 19, symbol N); type: in vivo, redroot pigweed (Amaranthus retroflexus); conditions: amount of applied herbicide 320 g/ha
Summary of the method: as §3

lambsquarters [11] = assay: Test Example 4: herbicidal effect by soil treatment (Table 19, symbol O); type: in vivo, lambsquarters (Chenopodium album); conditions: amount of applied herbicide 320 g/ha
Summary of the method: as §3

chickweed [12] = assay: Test Example 4: herbicidal effect by soil treatment (Table 19, symbol P); type: in vivo, common chickweed (Stellaria media); conditions: amount of applied herbicide 320 g/ha
Summary of the method: as §3

persian speedwell [13] = assay: Test Example 4: herbicidal effect by soil treatment (Table 19, symbol R); type: in vivo, Persian speedwell (Veronica persica); conditions: amount of applied herbicide 320 g/ha
Summary of the method: as §3

southern crabgrass [14] = assay: Test Example 5: herbicidal effect by foliage application, plastic box (Table 20, symbol F); type: in vivo, southern crabgrass (Digitaria ciliaris); conditions: amount of applied herbicide 320 g/ha; foliage application after 14-day growth; evaluated three weeks after application
Summary of the method: (§4)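 Post-emergence foliar test in sterilized diluvial soil. Compound applied as water-diluted emulsion at a predetermined rate to 14-day-old plants; evaluation at three weeks.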

green foxtail [15] = assay: Test Example 5: herbicidal effect by foliage application, plastic box (Table 20, symbol G); type: in vivo, green foxtail (Setaria viridis); conditions: amount of applied herbicide 320 g/ha; foliage application after 14-day growth; evaluated three weeks after application
Summary of the method: as §4

barnyard grass [16] = assay: Test Example 5: herbicidal effect by foliage application, plastic box (Table 20, symbol H); type: in vivo, barnyard grass (Echinochloa crus-galli); conditions: amount of applied herbicide 320 g/ha; foliage application after 14-day growth; evaluated three weeks after application
Summary of the method: as §4

wild oat [17] = assay: Test Example 5: herbicidal effect by foliage application, plastic box (Table 20, symbol I); type: in vivo, wild oat (Avena fatua); conditions: amount of applied herbicide 320 g/ha; foliage application after 14-day growth; evaluated three weeks after application
Summary of the method: as §4

blackgrass [18] = assay: Test Example 5: herbicidal effect by foliage application, plastic box (Table 20, symbol J); type: in vivo, blackgrass (Alopecurus myosuroides); conditions: amount of applied herbicide 320 g/ha; foliage application after 14-day growth; evaluated three weeks after application
Summary of the method: as §4

Italian ryegrass [19] = assay: Test Example 5: herbicidal effect by foliage application, plastic box (Table 20, symbol K); type: in vivo, Italian ryegrass (Lolium multiflorum); conditions: amount of applied herbicide 320 g/ha; foliage application after 14-day growth; evaluated three weeks after application
Summary of the method: as §4

windgrass [20] = assay: Test Example 5: herbicidal effect by foliage application, plastic box (Table 20, symbol L); type: in vivo, windgrass (Apera spica-venti); conditions: amount of applied herbicide 320 g/ha; foliage application after 14-day growth; evaluated three weeks after application
Summary of the method: as §4

velvetleaf [21] = assay: Test Example 5: herbicidal effect by foliage application, plastic box (Table 20, symbol M); type: in vivo, velvetleaf (Abutilon theophrasti); conditions: amount of applied herbicide 320 g/ha; foliage application after 14-day growth; evaluated three weeks after application
Summary of the method: as §4

redroot pigweed [22] = assay: Test Example 5: herbicidal effect by foliage application, plastic box (Table 20, symbol N); type: in vivo, redroot pigweed (Amaranthus retroflexus); conditions: amount of applied herbicide 320 g/ha; foliage application after 14-day growth; evaluated three weeks after application
Summary of the method: as §4

lambsquarters [23] = assay: Test Example 5: herbicidal effect by foliage application, plastic box (Table 20, symbol O); type: in vivo, lambsquarters (Chenopodium album); conditions: amount of applied herbicide 320 g/ha; foliage application after 14-day growth; evaluated three weeks after application
Summary of the method: as §4

chickweed [24] = assay: Test Example 5: herbicidal effect by foliage application, plastic box (Table 20, symbol P); type: in vivo, common chickweed (Stellaria media); conditions: amount of applied herbicide 320 g/ha; foliage application after 14-day growth; evaluated three weeks after application
Summary of the method: as §4

persian speedwell [25] = assay: Test Example 5: herbicidal effect by foliage application, plastic box (Table 20, symbol R); type: in vivo, Persian speedwell (Veronica persica); conditions: amount of applied herbicide 320 g/ha; foliage application after 14-day growth; evaluated three weeks after application
Summary of the method: as §4

Q: For Cc1nn(C)c(=O)c(-c2c(-c3ccc(F)cc3)sc3cc(Cl)c(Cl)cc23)c1O [5-039], which “herbicidal effect rating, A: late watergrass” value (late watergrass) is on record?
A: 3 (Herbicidal rate of 40% or more and less than 70%)

Q: What about the “herbicidal effect rating, B: Japanese bulrush” value (Japanese bulrush) of the same compound?
A: 0 (Herbicidal rate of 5% or less (almost no effect))

Q: And the “herbicidal effect rating, C: oval-leafed pondweed” value (oval-leafed pondweed)?
A: 0 (Herbicidal rate of 5% or less (almost no effect))

Q: What about the “herbicidal effect on barnyard grass (H)” value (barnyard grass [1]) of the same compound?
A: 4 (Herbicidal rate of 70% or more and less than 90%)

Q: What about the “herbicidal effect on Chinese sprangletop (D)” value (Chinese sprangletop) of the same compound?
A: 3 (Herbicidal rate of 40% or more and less than 70%)

Q: What about the “herbicidal effect on rice flat sedge (E)” value (rice flat sedge) of the same compound?
A: 5 (Herbicidal rate of 90% or more (almost completely withered))

Q: What about the “F: southern crabgrass, herbicidal effect grade” value (southern crabgrass [2]) of the same compound?
A: 0 (Herbicidal rate of 5% or less (almost no effect))

Q: What about the “G: green foxtail, herbicidal effect grade” value (green foxtail [3]) of the same compound?
A: 0 (Herbicidal rate of 5% or less (almost no effect))

Q: What about the “H: barnyard grass, herbicidal effect grade” value (barnyard grass [4]) of the same compound?
A: 0 (Herbicidal rate of 5% or less (almost no effect))

Q: And the “I: wild oat, herbicidal effect grade” value (wild oat [5])?
A: 0 (Herbicidal rate of 5% or less (almost no effect))

Q: What about the “J: blackgrass, herbicidal effect grade” value (blackgrass [6]) of the same compound?
A: 0 (Herbicidal rate of 5% or less (almost no effect))

Q: What about the “K: Italian ryegrass, herbicidal effect grade” value (Italian ryegrass [7]) of the same compound?
A: 0 (Herbicidal rate of 5% or less (almost no effect))

Q: And the “L: windgrass, herbicidal effect grade” value (windgrass [8])?
A: 0 (Herbicidal rate of 5% or less (almost no effect))

Q: And the “M: velvetleaf, herbicidal effect grade” value (velvetleaf [9])?
A: 0 (Herbicidal rate of 5% or less (almost no effect))

Q: What about the “N: redroot pigweed, herbicidal effect grade” value (redroot pigweed [10]) of the same compound?
A: 3 (Herbicidal rate of 40% or more and less than 70%)

Q: What about the “O: lambsquarters, herbicidal effect grade” value (lambsquarters [11]) of the same compound?
A: 1 (Herbicidal rate of 5% or more and less than 20%)

Q: What about the “P: chickweed, herbicidal effect grade” value (chickweed [12]) of the same compound?
A: 0 (Herbicidal rate of 5% or less (almost no effect))

Q: And the “R: persian speedwell, herbicidal effect grade” value (persian speedwell [13])?
A: 0 (Herbicidal rate of 5% or less (almost no effect))

Q: What about the “Herbicidal effect by foliage application, F: southern crabgrass” value (southern crabgrass [14]) of the same compound?
A: 4 (Herbicidal rate of 70% or more and less than 90%)

Q: What about the “Herbicidal effect by foliage application, G: green foxtail” value (green foxtail [15]) of the same compound?
A: 5 (Herbicidal rate of 90% or more (almost completely withered))

Q: What about the “Herbicidal effect by foliage application, H: barnyard grass” value (barnyard grass [16]) of the same compound?
A: 4 (Herbicidal rate of 70% or more and less than 90%)

Q: And the “Herbicidal effect by foliage application, I: wild oat” value (wild oat [17])?
A: 5 (Herbicidal rate of 90% or more (almost completely withered))

Q: What about the “Herbicidal effect by foliage application, J: blackgrass” value (blackgrass [18]) of the same compound?
A: 4 (Herbicidal rate of 70% or more and less than 90%)

Q: What about the “Herbicidal effect by foliage application, K: Italian ryegrass” value (Italian ryegrass [19]) of the same compound?
A: 4 (Herbicidal rate of 70% or more and less than 90%)

Q: What about the “Herbicidal effect by foliage application, L: windgrass” value (windgrass [20]) of the same compound?
A: 5 (Herbicidal rate of 90% or more (almost completely withered))

Q: What about the “Herbicidal effect by foliage application, M: velvetleaf” value (velvetleaf [21]) of the same compound?
A: 3 (Herbicidal rate of 40% or more and less than 70%)

Q: And the “Herbicidal effect by foliage application, N: redroot pigweed” value (redroot pigweed [22])?
A: 5 (Herbicidal rate of 90% or more (almost completely withered))

Q: What about the “Herbicidal effect by foliage application, O: lambsquarters” value (lambsquarters [23]) of the same compound?
A: 5 (Herbicidal rate of 90% or more (almost completely withered))

Q: What about the “Herbicidal effect by foliage application, P: chickweed” value (chickweed [24]) of the same compound?
A: 5 (Herbicidal rate of 90% or more (almost completely withered))

Q: And the “Herbicidal effect by foliage application, R: persian speedwell” value (persian speedwell [25])?
A: 4 (Herbicidal rate of 70% or more and less than 90%)
